Measurements: patent US5357044A, “Cecropins fusion proteins” (Xoma Corporation, priority 1993, dated 1994)
Ends that are not written are not given here.

How the values were obtained:
Erwinia carotovora EC = assay: Bactericidal agar-well halo assay, Erwinia carotovora EC; type: cell-based
Procedure: (§1) Agar plates (8 cm in diameter) were prepared with 6 ml of TYE medium containing about 10^7 viable cells of test organism. Wells, 2 mm diameter, were punched in the plates. The test material was dissolved in 50 mM phosphate buffer (pH 6.6) and 3 ul was applied to each well. The diameters of the inhibition zones, or halos, around the wells were measured after overnight incubation at 25° C. To determine a standard of halo formation, CA 1-33 protein was used. 1 ug and 3 ug of CA 1-33 in well applications caused halos with diameters of 8 mm and 11 mm respectively, on media infused with E. coli strain JF568. 10 ug and 30 ug of cyanogen bromide-digested pCA3A araB-CA fusion protein caused halos with diameters 7 mm and 18 mm respectively.
(§2) Cyanogen bromide-digested fusion protein fractionated by HPLC was also applied to this assay. […] Other bacterial and yeast strains were also tested in this assay. Cyanogen bromide-digested and undigested fusion protein samples were applied in the amounts described above in the testing of E. coli strain JF568, and the resulting halo diameters were measured.

Streptococcus faecalis = assay: Bactericidal agar-well halo assay, Streptococcus faecalis; type: cell-based; conditions: ampicillin 750 ng
Procedure: as §1, §2

E. coli 5506 = assay: Bactericidal agar-well halo assay, E. coli 5506; type: cell-based
Procedure: as §1, §2

E. coli 5506 DR = assay: Bactericidal agar-well halo assay, E. coli 5506 DR; type: cell-based
Procedure: as §1, §2

Salmonella derby = assay: Bactericidal agar-well halo assay, Salmonella derby; type: cell-based
Procedure: as §1, §2

Bacillus megaterium = conditions: background art; cited from earlier work
E. coli = conditions: background art; cited from earlier work
[1] = test system: eight other species of bacteria; conditions: background art; cited from earlier work
Xenohabdus nematophillus = assay: Bactericidal agar-well halo assay, Xenohabdus nematophillus; type: cell-based; conditions: CNBr-digested fusion protein isolate 5 ug
Procedure: Cyanogen bromide-digested fusion protein fractionated by HPLC was also applied to this assay. […] Cyanogen bromide-digested and undigested fusion protein samples were applied in the amounts described above in the testing of E. coli strain JF568, and the resulting halo diameters were measured.

Pseudomonas PS-9 = assay: Bactericidal agar-well halo assay, Pseudomonas PS-9; type: cell-based; conditions: CNBr-digested fusion protein isolate 5 ug
Procedure: as §1, §2

Serratia marcesens = assay: Bactericidal agar-well halo assay, Serratia marcesens; type: cell-based; conditions: CNBr-digested fusion protein isolate 5 ug
Procedure: as §1, §2

Klebsiella pneumoniae = assay: Bactericidal agar-well halo assay, Klebsiella pneumoniae; type: cell-based; conditions: CNBr-digested fusion protein isolate 5 ug
Procedure: as §1, §2

[2] = CNBr-digested fusion protein isolate 5 ug

CC1(C)S[C@@H]2[C@H](NC(=O)[C@H](N)c3ccccc3)C(=O)N2[C@H]1C(=O)O [Ampicillin, ampicillin]
Halo Activity in Millimeters (Erwinia carotovora EC; ampicillin 750 ng): 6.5 Millimeters | Halo Activity in Millimeters (Streptococcus faecalis): 7.0 Millimeters | Halo Activity in Millimeters (E. coli 5506; ampicillin 750 ng): 4.5 Millimeters | Halo Activity in Millimeters (E. coli 5506 DR; ampicillin 750 ng): 4.5 Millimeters | Halo Activity in Millimeters (Salmonella derby; ampicillin 750 ng): 6.0 Millimeters

cecropin A: natural antibacterial peptide purified from immune hemolymph of the Cecropia moth (KWKLFKKIEKVGQNIRDGIIKAGPAVAVVGQATQIAK; UniProt P01507 27-63, looked up)
sensitivity of the bacterium to the cecropin (Bacillus megaterium): highly sensitive

cecropin B: natural antibacterial peptide purified from immune hemolymph; sequence shown in b10 (KWKVFKKIEKMGRNIRNGIVKAGPAIAVLGEAKAL; UniProt P01508 27-61, looked up)
sensitivity of the bacterium to the cecropin (Bacillus megaterium): highly sensitive

cecropin D
sensitivity of the bacterium to the cecropin (Bacillus megaterium): relatively resistant | activity against E. coli relative to cecropins A and B (E. coli): almost as much activity | activity against eight other species of bacteria [1]: significantly reduced activity

pCA3D: CNBr-digested araB-CA fusion protein isolate from E. coli carrying plasmid pCA3D; releases wild type cecropin A (KWKLFKKIEKVGQNIRDGIIKAGPAVAVVGQATQIAK; ends and bridges not checked; UniProt P01507 27-63, looked up)
Halo Activity in Millimeters (Erwinia carotovora EC; [2]): 4.75 Millimeters | Halo Activity in Millimeters (Xenohabdus nematophillus): 2.75 Millimeters | Halo Activity in Millimeters (E. coli 5506; [2]): 5.0 Millimeters | Halo Activity in Millimeters (E. coli 5506 DR; [2]): 6.5 Millimeters | Halo Activity in Millimeters (Pseudomonas PS-9): 2.0 Millimeters | Halo Activity in Millimeters (Salmonella derby; [2]): 5.0 Millimeters | Halo Activity in Millimeters (Serratia marcesens): 1.0 Millimeters | Halo Activity in Millimeters (Klebsiella pneumoniae): 4.5 Millimeters
